From patent US11479546B2, “Antimalarial hexahydropyrimidine analogues” (UCB Biopharma SRL, priority 2018, dated 2022) come the findings set out here.

In general, IC50 refers to the concentration that inhibits the measured activity by half.

Molecules are shown by their SMILES.

This assay relates to Plasmodium falciparum 3D7. Kind of assay: P. falciparum 3D7 asexual blood stage assay, Assay Procedure Version 2 (SYBR green readout). Type of assay: cell-based. Particulars: Plasmodium falciparum, 3D7, Erythrocyte, 72 h, Version 2 of the assay procedure (asterisk *); 72 h incubation in infected erythrocytes; 50,000 nM to 15 nM. Put shortly: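 P. falciparum 3D7 in A+ erythrocytes (5% haematocrit, 0.5% parasitaemia) exposed 72 h at 37 °C (1% O2, 3% CO2) to 20-point 1.5-fold titrations, final 50,000–15 nM in 0.5% DMSO. SYBR green in lysis buffer overnight, fluorescence 485/528 nm; % inhibition vs mefloquine and DMSO controls, EC50 from biphasic two-site fit.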
Consider `C[C@@]1(c2cccc(Nc3cccc(OC(F)F)c3)c2Cl)CC(=O)N(C2CCOCC2)C(=N)N1` [Example 63, (6S)-6-{2-Chloro-3-[3-(difluoro-methoxy)anilino]phenyl}-2-imino-6-methyl-3-(tetrahydro-pyran-4-yl)hexahydropyrimidin-4-one], for which the IC50 is 916 nM.

As for `C[C@@]1(c2cccc(Nc3ccc(OC(F)(F)F)cc3)c2Cl)CC(=O)N(C2CCOCC2)C(=N)N1` [Example 64, (6S)-6-{2-Chloro-3-[4-(trifluoromethoxy)anilino]-phenyl}-2-imino-6-methyl-3-(tetrahydropyran-4-yl)-hexahydropyrimidin-4-one], the IC50 amounted to 1760 nM.

On to `CC(=O)N1CCc2cc(Nc3cccc([C@]4(C)CC(=O)N(C5CCOCC5)C(=N)N4)c3Cl)ccc21` [Example 65, (6S)-6-{3-[(1-Acetylindolin-5-yl)amino]-2-chlorophenyl}-2-imino-6-methyl-3-(tetrahydro-pyran-4-yl)hexahydropyrimidin-4-one], for which the IC50 was determined as 458 nM.

Consider `C[C@@]1(c2cccc(Nc3ccccc3OC(F)F)c2Cl)CC(=O)N(C2CCOCC2)C(=N)N1` [Example 66, (6S)-6-{2-Chloro-3-[2-(difluoro-methoxy)anilino]phenyl}-2-imino-6-methyl-3-(tetrahydro-pyran-4-yl)hexahydropyrimidin-4-one], for which the concentration for half-maximal inhibition (IC50) came to 217 nM.

The molecule `CC(C)(C)c1ccc(Nc2cccc([C@]3(C)CC(=O)N(C4CCOCC4)C(=N)N3)c2Cl)cc1` [Example 67, (6S)-6-[3-(4-tert-Butylanilino)-2-chlorophenyl]-2-imino-6-methyl-3-(tetrahydropyran-4-yl)hexahydropyrimidin-4-one] registered an IC50 of 2580 nM.

In turn, `C[C@@]1(c2cccc(Nc3cccc4c3OC(F)(F)O4)c2Cl)CC(=O)N(C2CCOCC2)C(=N)N1` [Example 68, (6S)-6-{2-Chloro-3-[(2,2-difluoro-1,3-benzodioxol-4-yl)amino]phenyl}-2-imino-6-methyl-3-tetrahydropyran-4-yl-hexahydropyrimidin-4-one] returned a concentration for half-maximal inhibition (IC50) of 524 nM.

In turn, `Cc1cccc(C)c1Nc1cccc([C@]2(C)CC(=O)N(C3CCOCC3)C(=N)N2)c1Cl` [Example 69, (6S)-6-[2-Chloro-3-(2,6-dimethylanilino)phenyl]-2-imino-6-methyl-3-(tetrahydro-pyran-4-yl)hexahydropyrimidin-4-one] had a half-maximal inhibitory concentration (IC50) of 579 nM.

For `C[C@@]1(c2cccc(Nc3cc(F)c4ccnn4c3)c2Cl)CC(=O)N(C2CCOCC2)C(=N)N1` [Example 70, (6S)-6-{2-Chloro-3-[(4-fluoro-pyrazolo[1,5-a]pyridin-6-yl)-amino]phenyl}-2-imino-6-methyl-3-(tetrahydropyran-4-yl)hexahydropyrimidin-4-one], the concentration for half-maximal inhibition (IC50) came to 478 nM.

On to `C[C@@]1(c2cccc(Nc3ccc(-c4ccccc4)cc3)c2Cl)CC(=O)N(C2CCOCC2)C(=N)N1` [Example 71, (6S)-6-[2-Chloro-3-(4-phenyl-anilino)phenyl]-2-imino-6-methyl-3-(tetrahydropyran-4-yl)hexahydropyrimidin-4-one], for which the concentration for half-maximal inhibition (IC50) came out at 3530 nM.

With `CN(C)c1ccc(Nc2cccc([C@]3(C)CC(=O)N(C4CCOCC4)C(=N)N3)c2Cl)cn1` [Example 72, (6S)-6-(2-Chloro-3-{[6-(dimethylamino)pyridin-3-yl]-amino}phenyl)-2-imino-6-methyl-3-(tetrahydropyran-4-yl)hexahydropyrimidin-4-one], the concentration for half-maximal inhibition (IC50) worked out at 325 nM.

`Cn1ccc(Nc2cccc([C@]3(C)CC(=O)N(C4CCOCC4)C(=N)N3)c2Cl)cc1=O` [Example 73, (6S)-6-{2-Chloro-3-[(1-methyl-2-oxopyridin-4-yl)amino]-phenyl}-2-imino-6-methyl-3-(tetrahydropyran-4-yl)-hexahydropyrimidin-4-one] registered a half-maximal inhibitory concentration (IC50) of 10400 nM.

In the case of `CC(C)Oc1cccc(Nc2cccc([C@]3(C)CC(=O)N(C4CCOCC4)C(=N)N3)c2Cl)c1` [Example 74, (6S)-6-[2-Chloro-3-(3-isopropoxyanilino)phenyl]-2-imino-6-methyl-3-(tetrahydro-pyran-4-yl)hexahydropyrimidin-4-one], the concentration for half-maximal inhibition (IC50) stood at 1290 nM.

For `C[C@@]1(c2cccc(Nc3cccc(Oc4ccccc4)c3)c2Cl)CC(=O)N(C2CCOCC2)C(=N)N1` [Example 75, (6S)-6-[2-Chloro-3-(3-phenoxy-anilino)phenyl]-2-imino-6-methyl-3-(tetrahydropyran-4-yl)hexahydropyrimidin-4-one], half-maximal inhibition (IC50) was put at 1460 nM.

For `CC(C)Oc1ccccc1Nc1cccc([C@]2(C)CC(=O)N(C3CCOCC3)C(=N)N2)c1Cl` [Example 76, (6S)-6-[2-Chloro-3-(2-isopropoxyanilino)phenyl]-2-imino-6-methyl-3-(tetrahydro-pyran-4-yl)hexahydropyrimidin-4-one], the half-maximal inhibitory concentration (IC50) is 757 nM.

On to `Cn1cc2c(Nc3cccc([C@]4(C)CC(=O)N(C5CCOCC5)C(=N)N4)c3Cl)cccc2n1` [Example 77, (6S)-6-{2-Chloro-3-[(2-methyl-indazol-4-yl)amino]phenyl}-2-imino-6-methyl-3-(tetrahydro-pyran-4-yl)hexahydropyrimidin-4-one], for which the half-maximal inhibitory concentration (IC50) came to 791 nM.

`Cn1cc2cc(Nc3cccc([C@]4(C)CC(=O)N(C5CCOCC5)C(=N)N4)c3Cl)ccc2n1` [Example 78, (6S)-6-{2-Chloro-3-[(2-methyl-indazol-5-yl)amino]phenyl}-2-imino-6-methyl-3-(tetrahydro-pyran-4-yl)hexahydropyrimidin-4-one] displayed an IC50 of 1420 nM.

With `C[C@@]1(c2cccc(Nc3cccc(N4CCCC4=O)c3)c2Cl)CC(=O)N(C2CCOCC2)C(=N)N1` [Example 79, (6S)-6-{2-Chloro-3-[3-(2-oxo-pyrrolidin-1-yl)anilino]phenyl}-2-imino-6-methyl-3-(tetrahydro-pyran-4-yl)hexahydropyrimidin-4-one], the midpoint of inhibition, the IC50, lay at 401 nM.

For the molecule `Cc1nnc(-c2ccc(Nc3cccc([C@]4(C)CC(=O)N(C5CCOCC5)C(=N)N4)c3Cl)cc2)o1` [Example 80, (6S)-6-{2-Chloro-3-[4-(5-methyl-1,3,4-oxadiazol-2-yl)-anilino]phenyl}-2-imino-6-methyl-3-(tetrahydropyran-4-yl)hexahydropyrimidin-4-one], the IC50 worked out at 652 nM.

`C[C@@]1(c2cccc(Nc3ccc(C(F)F)nc3)c2Cl)CC(=O)N(C2CCOCC2)C(=N)N1` [Example 81, (6S)-6-(2-Chloro-3-{[6-(difluoromethyl)pyridin-3-yl]-amino}phenyl)-2-imino-6-methyl-3-tetrahydropyran-4-yl-hexahydropyrimidin-4-one] came in with a 50% inhibitory concentration (IC50) of 425 nM.

Molecule `C[C@@]1(c2cccc(Nc3ccc(F)cc3C#N)c2Cl)CC(=O)N(C2CCOCC2)C(=N)N1` [Example 82, 2-{2-Chloro-3-[(4S)-2-imino-4-methyl-6-oxo-1-(tetrahydro-pyran-4-yl)hexahydropyrimidin-4-yl]anilino}-5-fluorobenzo-nitrile] yielded an IC50 of 137 nM.

`C[C@@]1(c2cccc(Nc3ccc(C(F)(F)F)cc3C#N)c2Cl)CC(=O)N(C2CCOCC2)C(=N)N1` [Example 83, 2-{2-Chloro-3-[(4S)-2-imino-4-methyl-6-oxo-1-(tetrahydro-pyran-4-yl)hexahydropyrimidin-4-yl]anilino}-5-(trifluoro-methyl)benzonitrile] came in with an IC50 of 357 nM.

Regarding `Cc1ccc(Nc2cccc([C@]3(C)CC(=O)N(C4CCOCC4)C(=N)N3)c2Cl)nn1` [Example 84, (6S)-6-{2-Chloro-3-[(6-methyl-pyridazin-3-yl)amino]phenyl}-2-imino-6-methyl-3-(tetrahydro-pyran-4-yl)hexahydropyrimidin-4-one], the IC50 stood at 1540 nM.

For `C[C@@]1(c2cccc(Nc3ccc4ncnn4c3)c2Cl)CC(=O)N(C2CCOCC2)C(=N)N1` [Example 85, (6S)-6-[2-Chloro-3-([1,2,4]-triazolo[1,5-a]pyridin-6-yl-amino)phenyl]-2-imino-6-methyl-3-(tetrahydropyran-4-yl)hexahydropyrimidin-4-one], inhibition was half-maximal at 1790 nM (IC50).

As to `CN1CCOc2cc(Nc3cccc([C@]4(C)CC(=O)N(C5CCOCC5)C(=N)N4)c3Cl)ccc21` [Example 86, (6S)-6-{2-Chloro-3-[(4-methyl-2,3-dihydro-1,4-benzoxazin-7-yl)amino]phenyl}-2-imino-6-methyl-3-(tetrahydropyran-4-yl)hexahydropyrimidin-4-one], the half-inhibitory concentration (IC50) worked out at 658 nM.

`COc1cc(Nc2cccc([C@]3(C)CC(=O)N(C4CCOCC4)C(=N)N3)c2Cl)ccn1` [Example 87, (6S)-6-{2-Chloro-3-[(2-methoxypyridin-4-yl)amino]-phenyl}-2-imino-6-methyl-3-(tetrahydropyran-4-yl)-hexahydropyrimidin-4-one] came in with a half-inhibitory concentration (IC50) of 666 nM.

For `Cc1ccc(Nc2cccc([C@]3(C)CC(=O)N(C4CCOCC4)C(=N)N3)c2Cl)c(C#N)n1` [Example 88, 3-{2-Chloro-3-[(4S)-2-imino-4-methyl-6-oxo-1-(tetrahydro-pyran-4-yl)hexahydropyrimidin-4-yl]anilino}-6-methylpyridine-2-carbonitrile], the IC50 amounted to 532 nM.

The molecule `C[C@@]1(c2cccc(Nc3cnc4ccccc4c3C#N)c2Cl)CC(=O)N(C2CCOCC2)C(=N)N1` [Example 89, 3-{2-Chloro-3-[(4S)-2-imino-4-methyl-6-oxo-1-(tetrahydro-pyran-4-yl)hexahydropyrimidin-4-yl]anilino}quinoline-4-carbonitrile] returned a half-inhibitory concentration (IC50) of 232 nM.

The molecule `Cc1ncc(Nc2cccc([C@]3(C)CC(=O)N(C4CCOCC4)C(=N)N3)c2Cl)c2ccccc12` [Example 90, (6S)-6-{2-Chloro-3-[(1-methyl-isoquinolin-4-yl)amino]phenyl}-2-imino-6-methyl-3-(tetrahydro-pyran-4-yl)hexahydropyrimidin-4-one] returned an IC50 of 3110 nM.

`C[C@@]1(c2cccc(Nc3ccn4nccc4c3)c2Cl)CC(=O)N(C2CCOCC2)C(=N)N1` [Example 91, (6S)-6-[2-Chloro-3-(pyrazolo-[1,5-a]pyridin-5-ylamino)-phenyl]-2-imino-6-methyl-3-(tetrahydropyran-4-yl)-hexahydropyrimidin-4-one] displayed an IC50 of 896 nM.
